Measurements: US6166290A, “Glutathione-S-conjugate transport in plants” (The Trustees of the University of Pennsylvania, priority 1997, dated 2000)

Columns and labels:
[1] = test system: DTY167 cells; experiment: Growth inhibition of DTY167 (ycf1Δ mutant) cells by CDNB; assay type: cell-based; details: Saccharomyces cerevisiae, 24 hours, read-out: diminution of optical density of culture
Method: (§1) FIGS. 1A-1B are a series of graphs depicting differential sensitivities of DYT165 cells (wild type, FIG. 1A) and DTY167 cells (ycf1Δ mutant, FIG. 1B) to growth inhibition by 1-chloro-2,4-dinitrobenzene (CDNB). Cells were grown at 30° C. for 24 hours to an OD600 nm of approximately 1.4 in YPD medium before inoculation of aliquots into 15 ml volumes of the same medium containing 0-60 μM CDNB. OD600 nm was measured at the times indicated.
(§2) Two strains of S. cerevisiae were used in these studies: DTY165 (MATα ura3-52 his6 leu2-3,-112 his3-Δ200 trp1-901 lys2-801 suc2-Δ) and the isogenic ycf1Δ mutant strain, DTY167 (MATα ura 3-52 his6 leu2-3,-112 his3-Δ200 trp 1-901 lys2-801 suc2-Δ, ycf1::hisG). The strains were routinely grown in rich (YPD) medium, or, when transformed with plasmid containing functional YCF1 gene, in synthetic complete medium (Sherman et al., 1983, Methods in Yeast Genetics, Cold Spring Harbor Laboratory, New York) or AHC medium (Kim et al., 1994, supra) lacking the appropriate amino acids. Escherichia coli strains XL1-blue (Stratagene) and DH11S were employed for the construction and maintenance of plasmid stocks (Ausubel et al., 1987, Current Protocols in Molecular Biology, Wiley, New York).
(§3) The isogenic wild type strain DTY165 and the ycf1Δ mutant strain, DTY167, were indistinguishable during growth in YPD medium lacking CDNB; both strains grew at the same rate after a brief lag. However, the addition of CDNB to the culture medium caused a greater retardation of the growth of DTY167 cells (FIG. 1B) than DTY165 cells (FIG. 1A). […] The optical densities of the DTY167 cultures were diminished by 65, 82, 85, and 91% by 40, 50, 60, and 70 μM CDNB, respectively, after 24 hours of incubation (FIG. 1B), whereas the corresponding diminutions for the DTY165 cultures were 14, 31, 59, and 92% (FIG. 1A). The increase in sensitivity to CDNB conferred by deletion of the YCF1 gene was similar to that seen with cadmium.

[2] = target: T1, YCF1 (vacuolar membrane vesicles purified from DTY165 cells) (Saccharomyces cerevisiae, UniProt P39109); experiment: biochemical; assay type: biochemical; details: 24 h, read-out: increase of 109Cd.GS2 uptake into vesicles from pretreated cells
T1 construct: endogenous in cells; host or cells: S. cerevisiae DTY165 (wild type YCF1), vacuolar membrane vesicles
T1 sequence (P39109 whole entry): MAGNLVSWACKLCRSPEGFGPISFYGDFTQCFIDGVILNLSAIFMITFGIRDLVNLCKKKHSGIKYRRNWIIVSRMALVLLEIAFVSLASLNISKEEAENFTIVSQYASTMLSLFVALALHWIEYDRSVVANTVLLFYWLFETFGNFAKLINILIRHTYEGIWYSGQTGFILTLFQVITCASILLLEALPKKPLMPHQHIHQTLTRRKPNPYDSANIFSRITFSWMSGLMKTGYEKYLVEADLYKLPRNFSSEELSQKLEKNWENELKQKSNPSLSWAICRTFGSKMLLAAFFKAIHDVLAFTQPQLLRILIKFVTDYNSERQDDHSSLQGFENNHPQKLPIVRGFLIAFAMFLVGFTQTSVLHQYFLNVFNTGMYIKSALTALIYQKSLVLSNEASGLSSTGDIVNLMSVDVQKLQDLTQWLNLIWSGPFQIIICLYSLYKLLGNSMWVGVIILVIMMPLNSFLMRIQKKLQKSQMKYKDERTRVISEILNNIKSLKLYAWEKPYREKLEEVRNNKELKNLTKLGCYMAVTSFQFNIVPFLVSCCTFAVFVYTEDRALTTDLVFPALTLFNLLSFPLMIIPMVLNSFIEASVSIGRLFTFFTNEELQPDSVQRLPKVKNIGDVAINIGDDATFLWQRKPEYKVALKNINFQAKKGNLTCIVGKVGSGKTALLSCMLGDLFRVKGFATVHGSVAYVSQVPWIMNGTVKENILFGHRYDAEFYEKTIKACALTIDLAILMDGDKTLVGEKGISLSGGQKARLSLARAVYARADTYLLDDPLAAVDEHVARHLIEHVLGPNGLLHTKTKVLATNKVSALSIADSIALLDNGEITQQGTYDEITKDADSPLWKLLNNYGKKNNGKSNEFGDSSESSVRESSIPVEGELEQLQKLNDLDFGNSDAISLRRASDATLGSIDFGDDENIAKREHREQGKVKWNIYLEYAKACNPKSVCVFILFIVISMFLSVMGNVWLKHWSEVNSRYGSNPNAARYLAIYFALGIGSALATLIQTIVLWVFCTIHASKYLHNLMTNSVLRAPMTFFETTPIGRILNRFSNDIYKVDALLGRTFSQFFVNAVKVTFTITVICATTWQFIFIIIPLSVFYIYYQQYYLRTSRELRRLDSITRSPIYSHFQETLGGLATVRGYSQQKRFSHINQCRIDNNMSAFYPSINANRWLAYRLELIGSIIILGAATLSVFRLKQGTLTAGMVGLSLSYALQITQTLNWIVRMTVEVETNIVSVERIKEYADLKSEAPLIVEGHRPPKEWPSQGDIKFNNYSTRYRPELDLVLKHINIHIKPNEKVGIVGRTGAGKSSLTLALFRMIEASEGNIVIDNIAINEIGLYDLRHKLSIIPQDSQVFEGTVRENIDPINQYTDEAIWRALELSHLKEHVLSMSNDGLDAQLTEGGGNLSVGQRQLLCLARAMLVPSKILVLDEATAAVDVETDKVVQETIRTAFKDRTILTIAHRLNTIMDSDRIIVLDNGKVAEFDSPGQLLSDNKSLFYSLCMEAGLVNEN
Method: In experiments involving cadmium transport, dithiothreitol and EGTA were removed from the suspension medium to prevent the attenuation of YCF1-dependent Cd^2+ transport otherwise exerted by these compounds. Vesiculated vacuolar membranes were subjected to three cycles of 50-fold dilution into simplified suspension medium (1.1 M glycerol, 5 mM Tris-Mes, pH 8.0), centrifugation at 100,000× g for 35 minutes and resuspension in the same medium before use.
Singly radiolabeled ^109 Cd.GSn and doubly radio-labeled ^109 Cd[^3 H].GS^n complexes were prepared by sequential gel-filtrationand anion-exchange chromatography of the reaction products generated by incubating 20 mM ^109 CdSO4 (78.4 mCi/mmol) with 40 mM GSH or 40 mM [^3 H]GSH (240 mCi/mmol) in 15 ml 10 mM phosphate buffer (pH 8.0) containing 150 mM KNO3 at 45° C. for 24 hours. For gel-filtration, 2 ml aliquots of the reaction mixture were applied to a column (40×1.5 cm ID) packed with water-equilibrated Sephadex G-1 5, eluted with deionized water and ^109 Cd and/or ^3 H in the fractions was measured by liquid scintillation counting. The fractions encompassed by each of the two ^109 Cd.GSn peaks identified were pooled, lyophilized and redissolved in 4 ml of loading buffer (5 mM Tris-Mes, pH 8.0). For anion-exchange chromatography, 0.5 ml aliquots of the resuspended lyophilizates from gel-filtration chromatography were applied to a Mono-Q HR5/5 column (Pharmacia) equilibrated with the same buffer. Elution was with a linear gradient of NaCl (0.5 ml/minute; 0-500 mM) dissolved in loading buffer. The individual fractions corresponding to the major peaks of ^109 Cd obtained from the Mono-Q column (one each for the peaks resolved by gel-filtration chromatography) were pooled, lyophilized and resuspended in 4 ml deionized water after liquid scintillation counting.
MgATP-energized, uncoupler-insensitive ^109 Cd^2+ uptake by vacuolar membrane vesicles was measured at 25° C. in 200 μl reaction volumes containing 3 mM ATP, 3 mM MgSO4, 5 μM gramicidin-D, 10 mM creatine phosphate, 16 units/ml creatine kinase, 50 mM KCl, 400 mM sorbitol, 25 mM Tris-Mes (pH 8.0) and the indicated concentrations of ^109 CdSO4, GSH or ^109 Cd- and/or ^3 H-labeled purified Cd.GSn complexes as described herein except that the wash media contained 100 μM CdSO4 in addition to sorbitol (400 mM) and Tris-Mes (3 mM, pH 8.0).

[3] = test system: DTY165 cells; experiment: Growth inhibition of DTY165 (wild type) cells by CDNB; assay type: cell-based; details: Saccharomyces cerevisiae, 24 hours, read-out: diminution of optical density of culture
Method: as §1, §2, §3

[4] = target: T1, YCF1 (vacuolar membrane vesicles purified from DTY165 cells); experiment: [3H]DNP-GS uptake by vacuolar membrane vesicles purified from DTY165 cells; assay type: biochemical; details: 24 h, read-out: increase of [3H]DNP-GS uptake into vesicles from pretreated cells
Method: For the routine preparation of vacuolar membrane vesicles, 15 ml of stationary phase cultures of DTY165 or DTY167 were diluted into 1-liter volumes of fresh YPD medium, grown for 24 hours at 30° C. to an OD600 nm of approximately 0.8 and collected by centrifugation. After washing with distilled water, the cells were converted to spheroplasts with Zymolyase 20T (ICN) (Kim et al., 1994, supra) and intact vacuoles were isolated by flotation centrifugation of spheroplast lysates on Ficoll 400 step gradients as described by Roberts et al. (1991, Methods. Enzymol. 194:644-661). Both the spheroplast lysis buffer and Ficoll gradients contained 2 mg/ml bovine serum albumin, 1 μg/ml aprotinin, 1 μg/ml leupeptin, 1 μg/ml pepstatin, and 1 mM PMSF to minimize proteolysis. The resulting vacuole fraction was vesiculated in 5 mM MgCl2, 25 mM KCl, 10 mM Tris-Mes (pH 6.9) containing 2 mg/ml bovine serum albumin, 1 μg/ml aprotinin, 1 μg/ml leupeptin, 1 μg/ml pepstatin, and 1 mM PMSF, pelleted by centrifugation at 37,000× g for 25 min, and resuspended in suspension medium (1.1 M glycerol, 2 mM dithiothreitol, 1 mM Tris-EGTA, 2 mg/ml bovine serum albumin, 1 μg/ml aprotinin, 1 μg/ml leupeptin, 1 μg/ml pepstatin, 1 mM PMSF, 5 mM Tris-Mes, pH 7.6) (Kim et al., 1995, J. Biol. Chem. 270:2630-2635).
Unless otherwise indicated, [^3 H]DNP-GS uptake was measured at 25° C. in 200 μl reaction volumes containing 3 mM ATP, 3 mM MgSO4, 5 μM gramicidin-D, 10 mM creatine phosphate, 16 units/ml creatine kinase, 50 mM KC 1, 1 mg/ml bovine serum albumin, 400 mM sorbitol, 25 mM Tris-Mes (pH 8.0), and 66.2 μM [^3 H]DNP-GS (8.7 mCi/mmol) (Li et al., 1995, supra). […] Uptake was initiated by the addition of vacuolar membrane vesicles (10-15 μg of membrane protein), brief mixing of the samples on a vortex mixer and uptake was then allowed to proceed for 1-60 minutes. Uptake was terminated by the addition of 1 ml of ice-cold wash medium (400 mM sorbitol, 3 mM Tris-Mes, pH 8.0) and vacuum filtration of the suspension through prewetted Millipore HA cellulose nitrate membrane filters (pore diameter, 0.45 μm). The filters were rinsed twice with 1 ml of ice-cold wash medium and air-dried, and radioactivity was determined by liquid scintillation counting in BCS mixture (Amersham Corp.). Nonenergized [^3 H]DNP-GS uptake and extravesicular solution trapped on the filters were enumerated by the same procedure except that ATP and Mg^2 +were omitted from the uptake medium.

[5] = test system: endogenous GS-X pump of plant vacuolar membranes; details: read-out: Km for transport by endogenous plant vacuolar GS-X pump; cited from earlier work
[6] = test system: vacuolar GS-X pump (vacuolar membrane vesicles, V. radiata hypocotyls); experiment: GS-conjugate uptake by vacuolar membrane vesicles from etiolated hypocotyls of V. radiata; assay type: biochemical, Vigna radiata; details: V. radiata
Method: Values shown are means ±SE (n=3).
Vacuolar membrane vesicles were purified from etiolated hypocotyls of V. radiata cv.
Unless otherwise indicated, [^3 H]medicarpin or [3H]medicarpin-GS uptake was measured at 25° C. in 200 μl reaction volumes containing 3 mM ATP, 3 mM MgSO4, 10 mM creatine phosphate, 16 U/ml creatine kinase, 50 mM KCl, 0.1% (w/v) BSA, 400 mM sorbitol and 25 mM Tris-Mes buffer, pH 8.0. Uptake was initiated by the addition of 12 μl membrane vesicles (30-40 μg protein) and brief mixing of the samples on a vortex mixer. Uptake was terminated by the addition of 1 ml ice-cold wash medium (400 mM sorbitol, 3 mM Tris-Mes, pH 8.0) and vacuum filtration of the suspension through prewetted HA cellulose nitrate filters (pore diameter 0.45 μm). The filters were rinsed twice with a 1 ml ice-cold wash medium, air-dried and radioactivity was determined by liquid scintillation counting.

[7] = test system: vacuolar GS-X pump (vacuolar membrane vesicles, V. radiata hypocotyls); details: cited from earlier work
[8] = target: T2, AtMRP1 (Arabidopsis thaliana, UniProt Q9C8G9); experiment: AtMRP1-dependent uptake by membrane vesicles from pYES3-AtMRP1-transformed DTY168 cells; assay type: biochemical; set-up: rate of C3G-GS uptake: unit not given here; details: 50 μM
T2 construct: S. cerevisiae DTY168 (ycf1 null) vacuolar-enriched membrane vesicles
T2 sequence (Q9C8G9 whole entry): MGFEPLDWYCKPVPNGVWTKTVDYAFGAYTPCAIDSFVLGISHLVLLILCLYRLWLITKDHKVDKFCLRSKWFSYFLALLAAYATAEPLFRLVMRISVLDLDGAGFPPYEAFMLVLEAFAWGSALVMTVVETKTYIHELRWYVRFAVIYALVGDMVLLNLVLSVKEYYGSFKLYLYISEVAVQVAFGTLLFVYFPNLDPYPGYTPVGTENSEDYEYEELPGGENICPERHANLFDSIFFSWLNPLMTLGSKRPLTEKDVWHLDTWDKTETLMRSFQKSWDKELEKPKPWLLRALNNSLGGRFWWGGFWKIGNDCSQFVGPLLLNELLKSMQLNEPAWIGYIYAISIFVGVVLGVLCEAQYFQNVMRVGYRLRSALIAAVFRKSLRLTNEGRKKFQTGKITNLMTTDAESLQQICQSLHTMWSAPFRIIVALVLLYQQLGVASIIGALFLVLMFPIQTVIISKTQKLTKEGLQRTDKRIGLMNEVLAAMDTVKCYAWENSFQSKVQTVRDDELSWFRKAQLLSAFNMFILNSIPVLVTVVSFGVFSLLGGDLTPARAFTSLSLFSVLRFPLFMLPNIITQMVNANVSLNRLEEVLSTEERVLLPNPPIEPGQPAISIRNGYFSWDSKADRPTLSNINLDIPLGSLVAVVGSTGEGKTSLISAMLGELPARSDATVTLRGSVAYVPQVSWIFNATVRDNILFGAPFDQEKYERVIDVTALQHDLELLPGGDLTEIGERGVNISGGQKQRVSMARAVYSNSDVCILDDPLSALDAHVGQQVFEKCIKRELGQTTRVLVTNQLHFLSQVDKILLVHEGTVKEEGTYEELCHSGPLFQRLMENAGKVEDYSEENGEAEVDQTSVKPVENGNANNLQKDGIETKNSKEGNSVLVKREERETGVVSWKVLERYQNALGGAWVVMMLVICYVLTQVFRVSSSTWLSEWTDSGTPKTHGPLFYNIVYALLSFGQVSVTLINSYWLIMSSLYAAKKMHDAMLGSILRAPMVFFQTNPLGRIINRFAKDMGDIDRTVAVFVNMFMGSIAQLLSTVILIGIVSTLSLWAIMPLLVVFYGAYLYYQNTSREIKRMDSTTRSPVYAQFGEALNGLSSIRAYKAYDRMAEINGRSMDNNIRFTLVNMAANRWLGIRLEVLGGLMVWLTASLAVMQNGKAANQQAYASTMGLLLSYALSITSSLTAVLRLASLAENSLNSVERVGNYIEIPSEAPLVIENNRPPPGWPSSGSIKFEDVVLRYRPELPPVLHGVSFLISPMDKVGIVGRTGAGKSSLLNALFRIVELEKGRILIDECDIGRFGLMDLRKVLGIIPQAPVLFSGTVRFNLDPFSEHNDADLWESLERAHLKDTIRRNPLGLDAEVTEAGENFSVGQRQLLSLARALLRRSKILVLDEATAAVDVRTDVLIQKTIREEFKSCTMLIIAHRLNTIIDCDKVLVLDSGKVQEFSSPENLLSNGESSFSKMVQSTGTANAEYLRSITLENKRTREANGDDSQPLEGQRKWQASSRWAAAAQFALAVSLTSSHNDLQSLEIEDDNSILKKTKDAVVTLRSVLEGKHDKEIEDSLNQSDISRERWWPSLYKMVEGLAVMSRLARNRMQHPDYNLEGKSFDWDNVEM
Method: S. cerevisiae strain DTY168 (MATα his6, leu2-3, -112, ura3-52 ycf1::hisG) was transformed with pYES3-AtMRP1 or empty vector lacking the AtMRP1 insert (pYES3) by the LiOAc/PEG method (Giest et al., 1991, Yeast 7:253-263) and selected for uracil prototrophy by plating on AHC medium containing tryptophan (Kim et al., 1994, supra).
For the preparation of membrane vesicles, 15 ml volumes of stationary phase cultures of the transformants were diluted into 1 L of fresh AHC medium and grown to an OD600 nm of about 1.2. Membrane vesicles were purified as described herein and in Kim et al. (1995, supra).
[…] μl reaction volumes containing 3 mM ATP, 3 mM MgSO4, 5 μM gramicidin-D, 10 mM creatine phosphate, 16 units/ml creatine kinase, 50 mM KCl, 1 mg/ml BSA, 400 mM sorbitol, 25 mM Tris-Mes ([…]).
(§4) Cells were grown and vacuolar membrane-enriched vesicles were prepared as described (Kim et al., 1995, J Biol. Chem. 270:2630-2635-). […] Uptake was terminated by the addition of 1 ml ice-cold wash medium (400 mM sorbitol/3 mM Tris-Mes, pH 8.0) and vacuum filtration of the suspension through prewetted Millipore HA cellulose nitrate filters (pore size 0.45 μm). The filters were rinsed twice with wash medium, and the retained radioactivity was determined by liquid scintillation counting. Nonenergized uptake was estimated by the same procedure except that ATP was omitted from the uptake medium.

[9] = test system: vacuolar GS-X pump (vacuolar membrane vesicles, Z. mays roots); experiment: GS-conjugate uptake by vacuolar membrane vesicles from roots of Z. mays; assay type: biochemical, Zea mays
[10] = target: T3, AtMRP2 (Arabidopsis thaliana, UniProt Q42093); experiment: AtMRP2-dependent uptake by membrane vesicles from pYES3-AtMRP2-transformed DTY168 cells; assay type: biochemical; details: 50 μM
T3 construct: S. cerevisiae DTY168 (ycf1 null) vacuolar-enriched membrane vesicles
T3 sequence (Q42093 whole entry): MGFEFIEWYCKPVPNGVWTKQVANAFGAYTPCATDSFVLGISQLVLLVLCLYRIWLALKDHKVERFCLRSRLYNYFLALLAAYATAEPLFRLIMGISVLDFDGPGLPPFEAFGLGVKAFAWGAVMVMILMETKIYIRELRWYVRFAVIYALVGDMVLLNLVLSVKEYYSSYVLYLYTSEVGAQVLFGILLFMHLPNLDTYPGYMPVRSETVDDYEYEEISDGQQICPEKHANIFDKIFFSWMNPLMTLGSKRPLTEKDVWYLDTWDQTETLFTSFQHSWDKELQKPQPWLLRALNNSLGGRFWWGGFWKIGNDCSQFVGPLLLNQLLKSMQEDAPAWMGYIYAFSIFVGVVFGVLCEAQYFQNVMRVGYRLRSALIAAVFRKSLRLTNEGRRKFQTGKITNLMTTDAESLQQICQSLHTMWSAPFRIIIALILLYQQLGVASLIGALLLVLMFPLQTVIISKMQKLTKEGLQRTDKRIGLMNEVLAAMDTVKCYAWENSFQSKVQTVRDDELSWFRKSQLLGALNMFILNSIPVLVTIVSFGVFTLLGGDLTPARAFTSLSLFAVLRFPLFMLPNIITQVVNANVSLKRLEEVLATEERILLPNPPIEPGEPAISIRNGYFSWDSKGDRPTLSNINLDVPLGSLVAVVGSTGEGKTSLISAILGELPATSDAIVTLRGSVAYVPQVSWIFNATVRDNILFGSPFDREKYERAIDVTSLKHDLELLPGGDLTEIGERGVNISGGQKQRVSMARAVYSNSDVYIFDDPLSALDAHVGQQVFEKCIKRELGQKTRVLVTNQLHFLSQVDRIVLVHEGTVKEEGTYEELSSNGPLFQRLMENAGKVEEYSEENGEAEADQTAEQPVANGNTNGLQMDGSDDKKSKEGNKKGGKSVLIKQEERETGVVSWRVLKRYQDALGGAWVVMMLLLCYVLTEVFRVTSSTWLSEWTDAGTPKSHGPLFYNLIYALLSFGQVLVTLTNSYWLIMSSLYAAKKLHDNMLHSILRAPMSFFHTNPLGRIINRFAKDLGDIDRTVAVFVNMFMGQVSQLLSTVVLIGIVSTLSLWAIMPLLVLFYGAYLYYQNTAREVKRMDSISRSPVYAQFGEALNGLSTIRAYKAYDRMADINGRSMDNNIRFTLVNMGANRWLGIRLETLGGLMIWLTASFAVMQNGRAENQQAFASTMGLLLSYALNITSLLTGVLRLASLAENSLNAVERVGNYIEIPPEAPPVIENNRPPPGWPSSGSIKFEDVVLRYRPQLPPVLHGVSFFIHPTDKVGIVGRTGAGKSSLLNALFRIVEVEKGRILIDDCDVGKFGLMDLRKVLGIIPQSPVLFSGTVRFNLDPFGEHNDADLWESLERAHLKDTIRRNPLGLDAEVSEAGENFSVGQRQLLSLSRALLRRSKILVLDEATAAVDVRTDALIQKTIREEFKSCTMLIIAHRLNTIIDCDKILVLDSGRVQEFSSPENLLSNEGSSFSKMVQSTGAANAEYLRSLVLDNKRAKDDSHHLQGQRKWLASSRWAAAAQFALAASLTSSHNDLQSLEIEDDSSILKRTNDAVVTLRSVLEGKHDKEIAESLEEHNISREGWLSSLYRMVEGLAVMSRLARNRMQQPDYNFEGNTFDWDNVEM
Method: as §4
Membranes from DTY168/pYES3-AtMRP2 cells were incubated for 10 minutes in standard uptake medium containing 61.3 μM [^3 H]DNP-GS after which time 200 mM glucose and 50 units/ml hexokinase (Type F-300 from baker's yeast) were added. […] Control samples were treated identically except that no additions were made after the initial 10 minute incubation period.

[11] = read-out: Km for MgATP-dependent, uncoupler-insensitive uptake

O=[N+]([O-])c1ccc(Cl)c([N+](=O)[O-])c1 [CDNB, 1-chloro-2,4-dinitrobenzene]
inhibition of growth at 40 µM ([1]; 40 μM CDNB): 65%
inhibition of growth at 50 µM ([1]; 50 μM CDNB): 82%
inhibition of growth at 60 µM ([1]; 60 μM CDNB): 85%
inhibition of growth at 70 µM ([1]; 70 μM CDNB): 91%
fold induction at 150 µM [2]: 1.7
inhibition of growth at 40 µM ([3]; 40 μM CDNB): 14%
inhibition of growth at 50 µM ([3]; 50 μM CDNB): 31%
inhibition of growth at 60 µM ([3]; 60 μM CDNB): 59%
inhibition of growth at 70 µM ([3]; 70 μM CDNB): 92%
fold induction at 150 µM [4]: 2.8

CCN1C(=O)CC(SC[C@H](NC(=O)CC[C@H](N)C(=O)O)C(=O)NCC(=O)O)C1=O (stereo partly shown) [glutathione-S-N-ethylmaleimide]
Km [5]: 500 µM

cyanin-3-glucoside-GS [C3G-GS]
Vmax for MgATP-dependent, uncoupler-insensitive uptake [6]: 45.3 ± 6.5 nmol/mg/10 min
Km [6, 11]: 45.7 ± 14 µM
Km estimated previously in this system [7]: 46 µM
Vmax of GS-X pump ([7]; comparison value for C3G-GS): 45 nmol/mg/min
rate of C3G-GS uptake [8]: 7.9±0.7
Vmax for MgATP-dependent, uncoupler-insensitive uptake [9]: 79.1 ± 14.7 nmol/mg/10 min
Km [9, 11]: 39.5 ± 16.6 µM
rate of C3G-GS uptake [10]: 48.4±2.2 nmol/mg/10 min
